Data reported in ChEMBL document CHEMBL1130778, “The synthesis and evaluation of cyclic ureas as HIV protease inhibitors: modifications of the P1/P1' residues” (Bioorg Med Chem Lett, 1998).

Key:
[1] = target: Human immunodeficiency virus type 1 protease (Human immunodeficiency virus 1, UniProt Q72874); assay: HIV protease inhibition.
[2] = system: Human immunodeficiency virus 1; assay: Whole cell antiviral activity.; format: functional

## O=C1N(Cc2cccc(-c3cc[nH]n3)c2)[C@H](Cc2ccc(OCc3ccncc3)cc2)[C@H](O)[C@@H](O)[C@@H](Cc2ccc(OCc3ccncc3)cc2)N1Cc1cccc(-c2cc[nH]n2)c1
[1]
  Ki: 0.071 nM
[2]
  IC90: 18 nM

## CN(C)CCOc1ccc(C[C@@H]2[C@H](O)[C@@H](O)[C@@H](Cc3ccc(OCCN(C)C)cc3)N(Cc3cccc(-c4cc[nH]n4)c3)C(=O)N2Cc2cccc(-c3cc[nH]n3)c2)cc1
[1]
  Ki: 0.061 nM
[2]
  IC90: 5400 nM

## O=C1N(Cc2ccccc2)[C@H](Cc2ccccc2)[C@H](O)[C@@H](O)[C@@H](Cc2ccccc2)N1Cc1ccccc1
[2]
  IC90: 790 nM

## O=C1N(Cc2cccc(-c3cc[nH]n3)c2)[C@H](Cc2ccc(OCCO)cc2)[C@H](O)[C@@H](O)[C@@H](Cc2ccc(OCCO)cc2)N1Cc1cccc(-c2cc[nH]n2)c1
[1]
  Ki: 0.059 nM
[2]
  IC90: 462 nM

## CNCCOc1ccc(C[C@@H]2[C@H](O)[C@@H](O)[C@@H](Cc3ccc(OCCNC)cc3)N(Cc3ccccc3)C(=O)N2Cc2ccccc2)cc1
[1]
  Ki: 1.6 nM
[2]
  IC90: 800 nM

## O=C1N(Cc2cccc(-c3cc[nH]n3)c2)[C@H](Cc2ccc(OCc3cccnc3)cc2)[C@H](O)[C@@H](O)[C@@H](Cc2ccc(OCc3cccnc3)cc2)N1Cc1cccc(-c2cc[nH]n2)c1
[1]
  Ki: 0.059 nM
[2]
  IC90: 32 nM

## O=C1N(Cc2ccccc2)[C@H](Cc2ccc(OCCN3CCOCC3)cc2)[C@H](O)[C@@H](O)[C@@H](Cc2ccc(OCCN3CCOCC3)cc2)N1Cc1ccccc1
[1]
  Ki: 5.9 nM
[2]
  IC90: 230 nM

## O=C1N(Cc2ccccc2)[C@H](Cc2ccc(O)cc2)[C@H](O)[C@@H](O)[C@@H](Cc2ccc(O)cc2)N1Cc1ccccc1
[2]
  IC90: 184 nM

## O=C1N(Cc2ccccc2)[C@H](Cc2ccc(OCCO)cc2)[C@H](O)[C@@H](O)[C@@H](Cc2ccc(OCCO)cc2)N1Cc1ccccc1
[1]
  Ki: 0.76 nM
[2]
  IC90: 78 nM

## Nc1cccc(CN2C(=O)N(Cc3cccc(N)c3)[C@H](Cc3ccccc3)[C@H](O)[C@@H](O)[C@H]2Cc2ccccc2)c1 [MOZENAVIR]
[2]
  IC90: 126 nM

## O=C1N(Cc2ccc(CO)cc2)[C@H](Cc2ccccc2)[C@H](O)[C@@H](O)[C@@H](Cc2ccccc2)N1Cc1ccc(CO)cc1 [DMP-323]
[1]
  Ki: 0.29 nM
[2]
  IC90: 91 nM

## COc1ccc(C[C@@H]2[C@H](O)[C@@H](O)[C@@H](Cc3ccc(OC)cc3)N(Cc3ccccc3)C(=O)N2Cc2ccccc2)cc1
[2]
  IC90: 600 nM

## O=C1N(Cc2cccc(-c3cc[nH]n3)c2)[C@H](Cc2ccc(OCCN3CCOCC3)cc2)[C@H](O)[C@@H](O)[C@@H](Cc2ccc(OCCN3CCOCC3)cc2)N1Cc1cccc(-c2cc[nH]n2)c1
[1]
  Ki: 0.13 nM
[2]
  IC90: 1030 nM

## O=C1N(Cc2cccc(-c3cc[nH]n3)c2)[C@H](Cc2ccccc2)[C@H](O)[C@@H](O)[C@@H](Cc2ccccc2)N1Cc1cccc(-c2cc[nH]n2)c1
[2]
  IC90: 56 nM

## O=C1N(Cc2cccc(-c3cc[nH]n3)c2)[C@H](Cc2ccc(O)cc2)[C@H](O)[C@@H](O)[C@@H](Cc2ccc(O)cc2)N1Cc1cccc(-c2cc[nH]n2)c1
[1]
  Ki: 0.016 nM
[2]
  IC90: 1340 nM

## COc1ccc(C[C@@H]2[C@H](O)[C@@H](O)[C@@H](Cc3ccc(OC)cc3)N(Cc3cccc(-c4cc[nH]n4)c3)C(=O)N2Cc2cccc(-c3cc[nH]n3)c2)cc1
[1]
  Ki: 0.078 nM
[2]
  IC90: 10 nM

## O=C1N(Cc2ccccc2)[C@H](Cc2ccc(OCc3ccncc3)cc2)[C@H](O)[C@@H](O)[C@@H](Cc2ccc(OCc3ccncc3)cc2)N1Cc1ccccc1
[1]
  Ki: 0.84 nM
[2]
  IC90: 100 nM
